Values joined by “and” are separate entries in the source; they are usually repeats but may differ in a detail not shown here. Identical values can stand only once.
Molecular target: T1, human GPR40 (Homo sapiens, UniProt O14842)
T1 construct: expressed in transfected cells
Experiment: GPR40 Calcium Flux Assay
Type: cell-based
Details: transfected HEK293 cells stably expressing human GPR40; calcium-sensitive fluorescent dye; read-out: hGPR40 Ca^2+ Assay EC50
Protocol: Compounds were tested in a calcium flux assay using transfected HEK293 cells stably expressing either human GPR40 or rat GPR40. Human GPR40 expressing cells were cultured in DMEM-High Glucose media supplemented with 10% fetal bovine serum, 1×L-Glutamine, 1×Penicillin/Streptomycin and 500 μg/mL G418. Rat GPR40 expressing cells were cultured in DMEM-High Glucose media supplemented with 10% fetal bovine serum and 1 μg/mL puromycin. Cells were plated into poly-D-lysine coated 384-well plates and cultured overnight in a 37° C. humidified tissue culture incubator under 5% CO2/[…] atmosphere. On the day of the experiment, the culture media was replaced with assay buffer (HBSS, 20 mM HEPES, 0.1% BSA) and the cells incubated at 37° C. for 1 h. Calcium-sensitive fluorescent dye (Fluo 8 No-Wash Calcium Dye, ABD Bioquest) was then added and the cells incubated for another 30 min at 37° C. followed by 15 min at room temperature while protected from the light. The cell plate and a plate of diluted compounds of Formula (II) were loaded into a fluorescent plate reader that added compounds onto the cells while measuring the fluorescence intensity of each well. The plate reader recorded fluorescence intensity at 1 second intervals for 8 min and provided the data for analysis in an Excel format. EC50 values were calculated using Prism (GraphPad) software.

T1 sequence (O14842 whole entry): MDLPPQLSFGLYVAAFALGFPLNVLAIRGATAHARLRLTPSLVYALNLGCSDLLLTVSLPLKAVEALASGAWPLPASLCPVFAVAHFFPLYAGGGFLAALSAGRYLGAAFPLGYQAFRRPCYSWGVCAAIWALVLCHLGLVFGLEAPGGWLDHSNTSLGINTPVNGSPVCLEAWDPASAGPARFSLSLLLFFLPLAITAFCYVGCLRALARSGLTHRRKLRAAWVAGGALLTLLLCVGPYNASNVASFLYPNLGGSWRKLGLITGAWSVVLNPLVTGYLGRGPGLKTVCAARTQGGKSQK

COc1ccc(F)c(-c2noc(/C=C/c3cccc(C(CC(=O)O)C4CC4)c3)c2C2CC2)c1 (stereo in doubt) [Cpd 58, (3S)-3-cyclopropyl-3-[3-[(E)-2-[4-cyclopropyl-3-(2-fluoro-5-methoxy-phenyl)isoxazol-5-yl]vinyl]phenyl]propanoic acid]
EC50: 26 nM

COc1ccc(F)c(-c2noc(COc3cc(C(CC(=O)O)C4CC4)ccn3)c2C2=CCCC2(C)C)c1 (stereo not shown) [Cpd 53, 3-cyclopropyl-3-[2-[[4-(5,5-dimethylcyclopenten-1-yl)-3-(2-fluoro-5-methoxy-phenyl)isoxazol-5-yl]methoxy]-4-pyridyl]propanoic acid]
EC50: 1 nM

COc1ccc(F)c(-c2noc(CCc3cccc([C@@H](CC(=O)O)C4CC4)c3)c2C2CCCC2(C)C)c1 (stereo partly drawn) [Cpd 54, (3S)-3-cyclopropyl-3-[3-[2-[4-(2,2-dimethylcyclopentyl)-3-(2-fluoro-5-methoxy-phenyl)isoxazol-5-yl]ethyl]phenyl]propanoic acid]
EC50: 1 nM

COc1ccc(F)c(-c2noc(COc3cc(C(CC(=O)O)C4CC4)c(Cl)cn3)c2C2=CCCC2(C)C)c1 (stereo not shown) [Cpd 55, 3-[5-chloro-2-[[4-(5,5-dimethylcyclopenten-1-yl)-3-(2-fluoro-5-methoxy-phenyl)isoxazol-5-yl]methoxy]-4-pyridyl]-3-cyclopropyl-propanoic acid]
EC50: 22 nM

COc1ccc(F)c(-c2noc(/C=C/c3cccc([C@@H](CC(=O)O)C4CC4)c3)c2C2=CCCC2(C)C)c1 [Cpd 56, (3S)-3-cyclopropyl-3-[3-[(E)-2-[4-(5,5-dimethylcyclopenten-1-yl)-3-(2-fluoro-5-methoxy-phenyl)isoxazol-5-yl]vinyl]phenyl]propanoic acid]
EC50: 23 nM

COc1ccc(F)c(-c2noc(CCc3cccc([C@@H](CC(=O)O)C4CC4)c3)c2C2CC2)c1 [Cpd 57, (3S)-3-cyclopropyl-3-[3-[2-[4-cyclopropyl-3-(2-fluoro-5-methoxy-phenyl)isoxazol-5-yl]ethyl]phenyl]propanoic acid]
EC50: 25 nM

COc1ccc(F)c(-c2noc(/C=C\c3cccc([C@@H](CC(=O)O)C4CC4)c3)c2C2=CCCC2(C)C)c1 [Cpd 59, (3S)-3-cyclopropyl-3-[3-[(Z)-2-[4-(5,5-dimethylcyclopenten-1-yl)-3-(2-fluoro-5-methoxy-phenyl)isoxazol-5-yl]vinyl]phenyl]propanoic acid]
EC50: 252 nM

COc1ccc(F)c(-c2cc(COc3cccc([C@@H](CC(=O)O)C4CC4)c3)sc2C(C)(C)C)c1 [Cpd 60, (3S)-3-[3-[[5-tert-butyl-4-(2-fluoro-5-methoxy-phenyl)-2-thienyl]methoxy]phenyl]-3-cyclopropyl-propanoic acid]
EC50: 56 nM and 29 nM

COc1ccc(F)c(-c2nsc(COc3cccc([C@@H](CC(=O)O)C4CC4)c3)c2C2=CCCC2(C)C)c1 [Cpd 61, (3S)-3-cyclopropyl-3-[3-[[4-(5,5-dimethylcyclopenten-1-yl)-3-(2-fluoro-5-methoxy-phenyl)isothiazol-5-yl]methoxy]phenyl]propanoic acid]
EC50: 260 nM and 205 nM

COc1ccc(F)c(-c2noc(COc3cccc([C@@H](CC(=O)O)C4CC4)c3)c2C2=CCCC2(C)C)c1 [Cpd 62, (3S)-3-cyclopropyl-3-[3-[[4-(5,5-dimethylcyclopenten-1-yl)-3-(2-fluoro-5-methoxy-phenyl)isoxazol-5-yl]methoxy]phenyl]propanoic acid]
EC50: 1 nM

Source: US9908873B2, “GPR40 agonists for the treatment of type II diabetes” (Janssen Pharmaceutica NV, priority 2015, dated 2018)
